# BindingDB's records for doi:10.1016/j.bmcl.2004.04.033 (Eli Lilly, 2004)
# pIC50: −log10 of the molar value. Structures can show the parent of a compound that is named as a salt.
# Biological target: Cyclin-dependent kinase 4/G1/S-specific cyclin-D1 (Homo sapiens, UniProt P11802)
# Assay: CDK Kinase Inhibition Assay
# Details: pH 7; 22 °C
# Method: In vitro CDK assay using purified enzyme, was incubated at room temperature with substrate, and test compounds in the presence of ATP/[gamma-33P]ATP. 33P incorporation was measured with a Top Count (Packard). IC50 is the inhibitor concentration which inhibits 50% of kinase activity that catalyzes the transfer of the terminal phosphate from 33P labeled ATP to the substrate.
# Cyclin-dependent kinase 4/G1/S-specific cyclin-D1, sequence (P11802 whole entry): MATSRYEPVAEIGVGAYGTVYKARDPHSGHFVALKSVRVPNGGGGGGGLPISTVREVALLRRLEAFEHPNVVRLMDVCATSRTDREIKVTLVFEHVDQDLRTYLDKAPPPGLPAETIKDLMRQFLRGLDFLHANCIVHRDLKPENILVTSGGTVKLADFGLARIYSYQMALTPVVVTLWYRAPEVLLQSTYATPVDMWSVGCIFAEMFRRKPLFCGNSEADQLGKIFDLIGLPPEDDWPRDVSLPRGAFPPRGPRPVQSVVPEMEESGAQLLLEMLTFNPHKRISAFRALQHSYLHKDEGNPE
# Cyclin-dependent kinase 4/G1/S-specific cyclin-D1, sequence (P24385 whole entry, further chain): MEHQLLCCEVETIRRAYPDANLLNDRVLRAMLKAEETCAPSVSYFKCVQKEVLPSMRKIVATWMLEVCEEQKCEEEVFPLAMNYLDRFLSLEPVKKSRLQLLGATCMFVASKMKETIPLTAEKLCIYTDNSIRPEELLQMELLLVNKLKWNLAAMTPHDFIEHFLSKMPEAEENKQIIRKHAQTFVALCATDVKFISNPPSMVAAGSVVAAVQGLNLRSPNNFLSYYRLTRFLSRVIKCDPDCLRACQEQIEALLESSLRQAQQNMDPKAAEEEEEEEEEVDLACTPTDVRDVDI
row,pIC50,Structure (SMILES)
1,6.17,"COC(=O)CC(NCC1Cc2cccc3c4c5c(c6c7ccc(F)cc7[nH]c6c4n(c23)C1)C(=O)NC5=O)C(=O)OC (stereo not given) [1,4-dimethyl 2-[({7-fluoro-13,15-dioxo-1,4,14-triazaheptacyclo[16.7.1.0^{2,17}.0^{3,11}.0^{5,10}.0^{12,16}.0^{22,26}]hexacosa-2(17),3(11),5(10),6,8,12(16),18(26),19,21-nonaen-24-yl}methyl)amino]butanedioate]"
2,8.10,"CNCC1Cc2cccc3c4c5c(c6c7ccc(F)cc7[nH]c6c4n(c23)C1)C(=O)NC5=O (stereo not given) [7-fluoro-24-[(methylamino)methyl]-1,4,14-triazaheptacyclo[16.7.1.0^{2,17}.0^{3,11}.0^{5,10}.0^{12,16}.0^{22,26}]hexacosa-2(17),3(11),5(10),6,8,12(16),18(26),19,21-nonaene-13,15-dione hydrochloride]"
3,7.19,"O=C1NC(=O)c2c1c1c3ccc(F)cc3[nH]c1c1c2c2cccc3c2n1CC(CCl)C3 (stereo not given) [24-(chloromethyl)-7-fluoro-1,4,14-triazaheptacyclo[16.7.1.0^{2,17}.0^{3,11}.0^{5,10}.0^{12,16}.0^{22,26}]hexacosa-2(17),3(11),5(10),6,8,12(16),18(26),19,21-nonaene-13,15-dione]"
4,6.05,"CN(C)CC1Cc2cccc3c4c5c(c6c7ccccc7[nH]c6c4n(c23)C1)C(=O)NC5=O (stereo not given) [24-[(dimethylamino)methyl]-1,4,14-triazaheptacyclo[16.7.1.0^{2,17}.0^{3,11}.0^{5,10}.0^{12,16}.0^{22,26}]hexacosa-2(17),3(11),5(10),6,8,12(16),18(26),19,21-nonaene-13,15-dione]"
5,< 5.70,"NC(=O)[C@@H]1CCCN1CC1Cc2cccc3c4c5c(c6c7ccc(F)cc7[nH]c6c4n(c23)C1)C(=O)NC5=O (stereo partly drawn) [(2S)-1-({7-fluoro-13,15-dioxo-1,4,14-triazaheptacyclo[16.7.1.0^{2,17}.0^{3,11}.0^{5,10}.0^{12,16}.0^{22,26}]hexacosa-2(17),3(11),5(10),6,8,12(16),18(26),19,21-nonaen-24-yl}methyl)pyrrolidine-2-carboxamide]"

# Biological target: cAMP-dependent protein kinase catalytic subunit alpha (Bos taurus, UniProt P00517)
# Assay: CDK Kinase Inhibition Assay
# Details: 25 °C
row,pIC50,Structure (SMILES)
1,< 5.70,"O=C1NC(=O)c2c1c1c3ccc(Br)cc3[nH]c1c1c2c2cccc3c2n1CC(CO)C3 (stereo not given) [7-bromo-24-(hydroxymethyl)-1,4,14-triazaheptacyclo[16.7.1.0^{2,17}.0^{3,11}.0^{5,10}.0^{12,16}.0^{22,26}]hexacosa-2(17),3(11),5(10),6,8,12(16),18(26),19,21-nonaene-13,15-dione]"
2,< 5.70,"O=C1NC(=O)c2c1c1c3ccc(F)cc3[nH]c1c1c2c2cccc3c2n1CC(CO)C3 (stereo not given) [7-fluoro-24-(hydroxymethyl)-1,4,14-triazaheptacyclo[16.7.1.0^{2,17}.0^{3,11}.0^{5,10}.0^{12,16}.0^{22,26}]hexacosa-2(17),3(11),5(10),6,8,12(16),18(26),19,21-nonaene-13,15-dione]"
3,6.42,"CNCC1Cc2cccc3c4c5c(c6c7ccc(F)cc7[nH]c6c4n(c23)C1)C(=O)NC5=O (stereo not given) [7-fluoro-24-[(methylamino)methyl]-1,4,14-triazaheptacyclo[16.7.1.0^{2,17}.0^{3,11}.0^{5,10}.0^{12,16}.0^{22,26}]hexacosa-2(17),3(11),5(10),6,8,12(16),18(26),19,21-nonaene-13,15-dione hydrochloride]"
4,< 5.70,"O=C1NC(=O)c2c1c1c3ccc(F)cc3[nH]c1c1c2c2cccc3c2n1C(CO)CC3 (stereo not given) [7-fluoro-25-(hydroxymethyl)-1,4,14-triazaheptacyclo[16.7.1.0^{2,17}.0^{3,11}.0^{5,10}.0^{12,16}.0^{22,26}]hexacosa-2(17),3(11),5(10),6,8,12(16),18(26),19,21-nonaene-13,15-dione]"
5,< 5.70,"O=C1NC(=O)c2c1c1c3ccccc3[nH]c1c1c2c2cccc3c2n1CCC3CO (stereo not given) [23-(hydroxymethyl)-1,4,14-triazaheptacyclo[16.7.1.0^{2,17}.0^{3,11}.0^{5,10}.0^{12,16}.0^{22,26}]hexacosa-2(17),3(11),5(10),6,8,12(16),18(26),19,21-nonaene-13,15-dione]"
6,< 5.70,"O=C1NC(=O)c2c1c1c3ccccc3[nH]c1c1c2c2cccc3c2n1CC(CO)C3 (stereo not given) [24-(hydroxymethyl)-1,4,14-triazaheptacyclo[16.7.1.0^{2,17}.0^{3,11}.0^{5,10}.0^{12,16}.0^{22,26}]hexacosa-2(17),3(11),5(10),6,8,12(16),18(26),19,21-nonaene-13,15-dione]"
7,< 5.70,"O=C1NC(=O)c2c1c1c3ccc(C(F)(F)F)cc3[nH]c1c1c2c2cccc3c2n1CC(CO)C3 (stereo not given) [24-(hydroxymethyl)-7-(trifluoromethyl)-1,4,14-triazaheptacyclo[16.7.1.0^{2,17}.0^{3,11}.0^{5,10}.0^{12,16}.0^{22,26}]hexacosa-2(17),3(11),5(10),6,8,12(16),18(26),19,21-nonaene-13,15-dione]"
8,< 5.70,"COc1ccc2c(c1)[nH]c1c2c2c(c3c4cccc5c4n(c13)CC(CO)C5)C(=O)NC2=O (stereo not given) [24-(hydroxymethyl)-7-methoxy-1,4,14-triazaheptacyclo[16.7.1.0^{2,17}.0^{3,11}.0^{5,10}.0^{12,16}.0^{22,26}]hexacosa-2(17),3(11),5(10),6,8,12(16),18(26),19,21-nonaene-13,15-dione]"
9,< 5.70,"O=C1NC(=O)c2c1c1c3ccccc3ccc1c1c2c2cccc3c2n1CC(CO)C3 (stereo not given) [25-(hydroxymethyl)-1,15-diazaheptacyclo[17.7.1.0^{2,18}.0^{3,12}.0^{6,11}.0^{13,17}.0^{23,27}]heptacosa-2(18),3(12),4,6(11),7,9,13(17),19(27),20,22-decaene-14,16-dione]"
10,< 5.70,"O=C1NC(=O)c2c1c1c3ccccc3ccc1c1c2c2cccc3c2n1C(CO)CC3 (stereo not given) [26-(hydroxymethyl)-1,15-diazaheptacyclo[17.7.1.0^{2,18}.0^{3,12}.0^{6,11}.0^{13,17}.0^{23,27}]heptacosa-2(18),3(12),4,6(11),7,9,13(17),19(27),20,22-decaene-14,16-dione]"
